The results in this text go back to ChEMBL document CHEMBL5209587, “Membrane potential based assay for SLC23A1 using HEK-293 SLC23A1 OE cells” (2022).

Molecules are shown by their SMILES.

The experiment deals with Solute carrier family 23 member 1 (Homo sapiens) (UniProt Q9UHI7). Briefly: Substrate uptake and inhibition of the Na(+)/L-Ascorbic Acid Transporter 1 (SVCT1, SLC23A1) as assessed by the fluorescent FLIPR membrane potential dye in HEK-293 JumpIN-SLC23A1 cells (PubChem AID: 1794810). The settings on record: HEK293. Format: functional, cell-based.
Sequence of Solute carrier family 23 member 1 (Homo sapiens) (Q9UHI7 whole entry): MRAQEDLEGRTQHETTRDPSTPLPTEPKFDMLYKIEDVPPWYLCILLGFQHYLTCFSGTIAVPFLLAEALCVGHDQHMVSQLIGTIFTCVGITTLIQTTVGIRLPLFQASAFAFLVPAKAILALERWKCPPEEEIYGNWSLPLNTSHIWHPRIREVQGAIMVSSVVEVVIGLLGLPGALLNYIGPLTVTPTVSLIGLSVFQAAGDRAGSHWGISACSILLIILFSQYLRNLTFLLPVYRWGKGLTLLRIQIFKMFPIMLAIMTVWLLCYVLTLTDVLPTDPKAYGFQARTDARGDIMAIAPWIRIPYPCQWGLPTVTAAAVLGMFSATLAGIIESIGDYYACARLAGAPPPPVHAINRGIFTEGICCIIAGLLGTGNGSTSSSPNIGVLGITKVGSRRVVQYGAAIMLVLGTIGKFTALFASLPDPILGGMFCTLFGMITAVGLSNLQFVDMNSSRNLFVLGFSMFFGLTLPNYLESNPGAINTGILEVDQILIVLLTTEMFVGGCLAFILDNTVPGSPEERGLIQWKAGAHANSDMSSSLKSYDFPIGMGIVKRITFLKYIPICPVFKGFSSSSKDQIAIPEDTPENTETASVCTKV

Regarding `O=C(CCc1ccc(O)cc1)c1c(O)cc(O)cc1O`, the inhibition entry is “Inhibitor: Almost Complete Inhibition At A Concentration Of 300 Μm”.
